Reference: patent publication US20230049917A1, “Pharmaceutical Composition of CASR Modulators and Methods and Uses Thereof” (Lupin Limited, priority 2019, published 2023)
Where “and” joins values, the source holds several entries; their conditions need not be identical. Equal entries are not always repeated.

How the values were obtained:
iPTH = experiment: Phase 2 Main Study: iPTH change from baseline in CKD patients with SHPT; assay type: in vivo, human; details: for iPTH levels reduced from baseline (FIG. 1) / mean percentage suppression in iPTH from baseline, peak, Day 90, 2 to 4 hours post-dose (exploratory analysis) / mean percentage suppression in iPTH from baseline at the end of 90 days / proportion of patients with ≥30% reduction in iPTH from baseline at end of 90 days (responder rate): patients on dialysis
Description: A randomized, double-blind, placebo-controlled phase 2 clinical study was conducted to assess the efficacy, pharmacokinetics (PK), pharmacodynamics (PD) and safety of 2-methyl-5-((2R,4S)-2-((((R)-1-(naphthalen-1-yl)ethyl)amino)methyl) chroman yl)benzoic acid, hydrochloride (Compound 3), as a monotherapy in patients with CKD with secondary hyperparathyroidism (SHPT). The patients enrolled in the study were either on dialysis or not on dialysis. Patients could continue taking doses (whether stable dosing or otherwise) of calcium supplements, phosphate binders, vitamin D, vitamin D analogues or a combination thereof for the treatment of SHPT in combination with Compound 3. Patients can take at least one calcium supplement, phosphate binder, vitamin D, vitamin D analogue or a combination thereof concurrently or concomitantly with Compound 3. Dosing for such calcium supplements, phosphate binders, vitamin D, vitamin D analogues or a combination thereof for the treatment of SHPT can be individualized based on patient's iPTH levels, and/or can correlate with doses presently used for the treatment of SHPT.
This was a double-blind, randomized, placebo-controlled, multicenter study with an additional non-randomized open-label arm conducted in patients with secondary hyper-parathyroidism (SHPT) associated with CKD which was further stratified in 2 groups: on dialysis and not on dialysis. The iPTH levels of patients in the “on dialysis” group were in a range of 428.2 pg/ml to 1240.6 pg/ml (mean 857.76 pg/ml) while those in the “not on dialysis” group were in a range of 125.0 pg/ml to 654.7 pg/ml (mean 297.83 pg/ml).
Total 179 patients were enrolled in this study of which 108 patients were on dialysis and 71 were not on dialysis. Patients of on dialysis group were further randomized to 3 subgroups administering 10 mg Compound 3, 25 mg Compound 3, or placebo once daily in a double blind fashion enrolling 35 patients, 36 patients and 18 patients, respectively, and an additional non-randomized open label arm enrolling 19 patients receiving 20 mg Compound 3, twice daily. A total of 98 patients completed the study. 10 patients discontinued the study. None of the patients discontinued the study due to adverse drug reactions.
Patients on not on dialysis group were randomized to two treatment subgroups administering 10 mg Compound 3, or placebo once daily in a double blind fashion enrolling 37 and 18 patients, respectively, and an additional non-randomized open label arm enrolling 16 patients receiving 5 mg Compound 3, twice daily. 4 patients discontinued the study. None of the patients discontinued the study due to adverse drug reactions.
The efficacy, PK, PD and safety of Compound 3, as a monotherapy in patients with CKD with secondary hyperparathyroidism (SHPT), were assessed. One objective of the study was to evaluate the mean percentage change in iPTH from baseline at the end of 90 days. Yet another objective of the study was to determine the proportion of patients with >30% reduction in iPTH from baseline at the end of 90 days. Yet another objective of the study was to ensure safety of patients.
For efficacy assessments, the primary efficacy assessment included measurement of iPTH and the exploratory efficacy assessment included measurement of parathyroid gland size at scheduled time points. Blood samples for measurement of iPTH were collected during Day −30 to Day −1 (Screening Period); Day 1; Day 8+/−3 days; Day 15+/−3 days; Day 30+/−3 days; Day 60+/−3 days; and Day 90+/−3 days (EOT/Early Discontinuations). Two blood samples were collected during Screening Period and higher of these 2 values was considered as a baseline value. During treatment period of the Main Study, blood samples were collected on Day 30, Day 60, and Day 90. If the blood sample collected on Day 90 could not be analysed for any reason, the second blood sample had to be collected within 3 days of end of treatment (EOT). […]

cytochrome P450 2D6 = cytochrome P450 2D6 (Homo sapiens, UniProt P10635); experiment: Cytochrome P450 2D6 liability; assay type: in vitro ADME
[1] = target: human Ether-a-go-go-related gene (hERG) (Homo sapiens, UniProt Q12809); experiment: hERG liability
[2] = patients not on dialysis, 10 mg QD

Sequence of human Ether-a-go-go-related gene (hERG) (Q12809 whole entry): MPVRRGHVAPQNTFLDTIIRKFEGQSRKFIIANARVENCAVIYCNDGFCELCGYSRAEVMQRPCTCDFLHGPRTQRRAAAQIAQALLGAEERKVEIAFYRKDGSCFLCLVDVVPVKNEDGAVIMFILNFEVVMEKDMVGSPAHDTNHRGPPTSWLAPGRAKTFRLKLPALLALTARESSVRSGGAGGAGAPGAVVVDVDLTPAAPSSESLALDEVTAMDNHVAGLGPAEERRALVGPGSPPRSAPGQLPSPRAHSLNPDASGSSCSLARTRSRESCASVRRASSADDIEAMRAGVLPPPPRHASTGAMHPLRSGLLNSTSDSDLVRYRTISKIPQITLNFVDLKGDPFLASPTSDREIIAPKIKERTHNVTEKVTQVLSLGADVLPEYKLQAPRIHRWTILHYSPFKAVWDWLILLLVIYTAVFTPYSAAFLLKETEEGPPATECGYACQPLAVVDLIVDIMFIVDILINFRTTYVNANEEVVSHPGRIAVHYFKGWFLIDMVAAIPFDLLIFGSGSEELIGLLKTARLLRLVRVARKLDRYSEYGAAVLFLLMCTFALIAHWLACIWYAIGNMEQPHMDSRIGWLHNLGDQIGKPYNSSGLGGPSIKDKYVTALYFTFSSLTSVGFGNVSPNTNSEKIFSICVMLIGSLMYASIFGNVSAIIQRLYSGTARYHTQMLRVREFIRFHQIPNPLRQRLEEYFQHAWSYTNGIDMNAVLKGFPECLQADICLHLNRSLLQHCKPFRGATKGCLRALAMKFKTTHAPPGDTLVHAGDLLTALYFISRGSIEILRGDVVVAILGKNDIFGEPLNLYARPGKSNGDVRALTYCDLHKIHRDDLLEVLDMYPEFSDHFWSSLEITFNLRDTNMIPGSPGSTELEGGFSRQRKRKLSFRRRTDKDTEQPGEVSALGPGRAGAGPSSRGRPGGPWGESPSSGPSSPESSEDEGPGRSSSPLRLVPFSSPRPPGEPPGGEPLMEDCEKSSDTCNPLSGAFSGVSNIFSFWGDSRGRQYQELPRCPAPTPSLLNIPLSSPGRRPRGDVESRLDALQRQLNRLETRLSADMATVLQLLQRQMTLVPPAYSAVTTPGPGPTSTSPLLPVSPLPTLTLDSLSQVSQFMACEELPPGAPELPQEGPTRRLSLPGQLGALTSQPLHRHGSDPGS
Sequence of cytochrome P450 2D6 (P10635 whole entry, species assumed): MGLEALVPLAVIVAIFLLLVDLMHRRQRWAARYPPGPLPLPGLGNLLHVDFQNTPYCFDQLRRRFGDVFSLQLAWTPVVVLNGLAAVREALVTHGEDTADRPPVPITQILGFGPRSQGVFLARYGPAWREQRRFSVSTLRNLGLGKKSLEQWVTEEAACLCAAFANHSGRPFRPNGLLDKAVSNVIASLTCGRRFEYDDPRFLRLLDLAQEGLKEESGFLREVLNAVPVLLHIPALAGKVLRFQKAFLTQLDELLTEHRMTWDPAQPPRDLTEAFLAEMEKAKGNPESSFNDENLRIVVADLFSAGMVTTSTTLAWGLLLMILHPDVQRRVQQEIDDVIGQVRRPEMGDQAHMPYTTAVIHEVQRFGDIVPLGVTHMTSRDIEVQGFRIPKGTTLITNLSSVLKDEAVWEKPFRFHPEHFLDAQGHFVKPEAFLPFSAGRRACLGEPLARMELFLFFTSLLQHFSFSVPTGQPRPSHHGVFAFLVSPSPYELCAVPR

`Cc1ccc([C@@H]2C[C@H](CN[C@H](C)c3cccc4ccccc34)Oc3ccccc32)cc1C(=O)O.Cl` [Compound 3, 2-methyl-5-((2R,4S)-2-((((R)-1-(naphthalen-1-yl)ethyl)amino)methyl)chroman-4-yl)benzoic acid hydrochloride] was tested, and the “iPTH levels reduced from baseline (FIG. 2)” value (iPTH; patients not on dialysis, 5 mg BID) was “more than 30%”, the “mean percentage suppression in iPTH from baseline at the end of 90 days (2 to 4 hours post-dose), exploratory analysis” value (iPTH; patients not on dialysis, 5 mg BID open label arm) was −55.03% and the “iPTH levels reduced from baseline (FIG. 2)” value (iPTH; [2]) was “more than 30%”. For the same compound, the “mean percentage suppression in iPTH from baseline at the end of 90 days (2 to 4 hours post-dose), exploratory analysis” value (iPTH; [2]) was −48.07%, the “mean percentage suppression in iPTH versus Placebo at the end of Day 90” value (iPTH; patients not on dialysis, 10 mg QD and 5 mg BID) was “No significant difference” and the “difference in proportion of patients who achieved ≥30% reduction in iPTH from baseline at the end of 90 days versus Placebo” value (iPTH; patients not on dialysis, QD or BID dosing regimen, 10 mg per day) was “not significant”. For the same compound, the “iPTH levels reduced from baseline (FIG. 1)” value (iPTH; 10 mg QD) was 25.65%, the “mean percentage suppression in iPTH from baseline, peak, Day 90, 2 to 4 hours post-dose (exploratory analysis)” value (iPTH; 10 mg QD) was −79.54% and the “mean percentage suppression in iPTH from baseline at the end of 90 days” value (iPTH; 10 mg QD, per protocol) was −25.65%. The “iPTH levels reduced from baseline (FIG. 1)” value (iPTH; 20 mg BID) was “more than 30%”, the “mean percentage suppression in iPTH from baseline at the end of 90 days” value (iPTH; 20 mg BID open label arm) was −82.42% and the “mean percentage suppression in iPTH from baseline, peak, Day 90, 2 to 4 hours post-dose (exploratory analysis)” value (iPTH; 20 mg BID open label arm) was −93.02%. For the same compound, the “proportion of patients with ≥30% reduction in iPTH from baseline at end of 90 days (responder rate)” value (iPTH; 20 mg BID, hydrochloride) was 93% and ~90%, the “iPTH levels reduced from baseline (FIG. 1)” value (iPTH; 25 mg QD) was “more than 30%” and the “mean percentage suppression in iPTH from baseline, peak, Day 90, 2 to 4 hours post-dose (exploratory analysis)” value (iPTH; 25 mg QD) was −85.79%. The “proportion of patients with ≥30% reduction in iPTH from baseline at end of 90 days (responder rate)” value (iPTH; 25 mg QD) was “around 80%”, the “mean percentage suppression in iPTH from baseline at the end of 90 days” value (iPTH; 25 mg QD, per protocol) was −56.65% and the “cytochrome P450 2D6 liabilities” value (cytochrome P450 2D6) was “devoid”. For the same compound, the hERG liabilities [1] was “devoid”.
